Earlier results in US9801891B2, “Compositions and methods for lowering intraocular pressure” (ALLERGAN, INC., priority 2009, dated 2017).

System: alpha-2 adrenoceptor

Brc1c(N=C2NCCN2)ccc2nccnc12.O=C(O)C(O)C(O)C(=O)O [Brimonidine tartrate, 5-bromo-6-(2-imidazolidinylideneamino) quinoxaline L-tartrate]
Selectivity for the alpha-2 adrenoceptor over the alpha-1 adrenoreceptor: 1000 fold
